From patent US20240415914A1, “Water Dispersible Cannabinoid Compositions” (priority 2021, published 2024)
Read-outs that look alike come from different tables or passages of the source.

Columns and labels:
[1] = format: physicochemical; conditions: stored at room temperature (21-25° C.)
Experimental: At each time period, 0.05 g of powder was dissolved in 10 ml-15 of ethanol, diluted to fall within the analytical range, and injected into the LCMSMS for analysis.

[2] = Stability of cannabinoid and Vitamin E components of Beverage 2 (AB Red) stored at 8° C. and 21-25° C., LCMSMS over 570 days
Experimental: The LCMSMS was calibrated for 0-50 ng/ml cannabinoids with the same resin material used in the preparation of the concentrates. At each time period, 100 μml of beverage was diluted with 10 ml of methanol and injected into the LCMSMS for analysis.

CCCCCc1cc(O)c(C/C=C(\C)CCC=C(C)C)c(O)c1 [CBG, cannabigerol]
Stability in Powder Concentrate (content by LCMSMS) ([1]; day 0): 1.1 mg/g powder
Stability in Powder Concentrate (content by LCMSMS) ([1]; day 1): 1.07 mg/g powder
Stability in Powder Concentrate (content by LCMSMS) ([1]; day 2): 1.08 mg/g powder
Stability in Powder Concentrate (content by LCMSMS) ([1]; day 3): 1.09 mg/g powder
Stability in Powder Concentrate (content by LCMSMS) ([1]; day 5): 1.11 mg/g powder
Stability in Powder Concentrate (content by LCMSMS) ([1]; day 8): 1.07 mg/g powder
Stability in Powder Concentrate (content by LCMSMS) ([1]; day 9): 1.09 mg/g powder
Stability in Powder Concentrate (content by LCMSMS) ([1]; day 10): 1.08 mg/g powder
Stability in Powder Concentrate (content by LCMSMS) ([1]; day 11): 1.14 mg/g powder
Stability in Powder Concentrate (content by LCMSMS) ([1]; day 12): 1.10 mg/g powder
Stability in Powder Concentrate (content by LCMSMS) ([1]; day 15): 1.08 mg/g powder
Stability in Powder Concentrate (content by LCMSMS) ([1]; day 16): 1.06 mg/g powder
Stability in Powder Concentrate (content by LCMSMS) ([1]; day 17): 1.06 mg/g powder
Stability in Powder Concentrate (content by LCMSMS) ([1]; day 18): 1.13 mg/g powder
Stability in Powder Concentrate (content by LCMSMS) ([1]; day 19): 1.14 mg/g powder
Stability in Powder Concentrate (content by LCMSMS) ([1]; day 22): 1.12 mg/g powder
Stability in Powder Concentrate (content by LCMSMS) ([1]; day 23): 1.13 mg/g powder
Stability in Powder Concentrate (content by LCMSMS) ([1]; day 24): 1.09 mg/g powder
Stability in Powder Concentrate (content by LCMSMS) ([1]; day 25): 1.13 mg/g powder
Stability in Powder Concentrate (content by LCMSMS) ([1]; day 26): 1.14 mg/g powder
Stability in Powder Concentrate (content by LCMSMS) ([1]; day 29): 1.10 mg/g powder
Stability in Powder Concentrate (content by LCMSMS) ([1]; day 30): 1.07 mg/g powder
Stability in Powder Concentrate (content by LCMSMS) ([1]; day 60): 1.1 mg/g powder
Stability in Powder Concentrate (content by LCMSMS) ([1]; day 90): 1.13 mg/g powder
Stability in Powder Concentrate (content by LCMSMS) ([1]; day 120): 1.09 mg/g powder
Stability in Powder Concentrate (content by LCMSMS) ([1]; day 150): 1.11 mg/g powder
Stability in Powder Concentrate (content by LCMSMS) ([1]; day 180): 1.07 mg/g powder
Stability in Powder Concentrate (content by LCMSMS) ([1]; day 210): 1.06 mg/g powder
Stability in Powder Concentrate (content by LCMSMS) ([1]; day 240): 1.12 mg/g powder
Stability in Powder Concentrate (content by LCMSMS) ([1]; day 270): 1.15 mg/g powder
Stability in Powder Concentrate (content by LCMSMS) ([1]; day 300): 1.09 mg/g powder
Stability in Powder Concentrate (content by LCMSMS) ([1]; day 330): 1.10 mg/g powder
Stability in Powder Concentrate (content by LCMSMS) ([1]; day 360): 1.09 mg/g powder
Stability in Powder Concentrate (content by LCMSMS) ([1]; day 390): 1.14 mg/g powder
Stability in Powder Concentrate (content by LCMSMS) ([1]; day 420): 1.11 mg/g powder
Stability in Powder Concentrate (content by LCMSMS) ([1]; day 450): 1.06 mg/g powder
Stability in Powder Concentrate (content by LCMSMS) ([1]; day 480): 1.12 mg/g powder
Stability in Powder Concentrate (content by LCMSMS) ([1]; day 510): 1.07 mg/g powder
Stability in Powder Concentrate (content by LCMSMS) ([1]; day 540): 1.07 mg/g powder
Stability in Powder Concentrate (content by LCMSMS) ([1]; day 570): 1.06 mg/g powder
Stability of Cannabinoids in AB Red ([2]; 8° C., 0 days): 4.75 µg/mL
Stability of Cannabinoids in AB Red ([2]; 8° C., 1 days): 4.62 µg/mL
Stability of Cannabinoids in AB Red ([2]; 8° C., 2 days): 4.79 µg/mL
Stability of Cannabinoids in AB Red ([2]; 8° C., 3 days): 4.70 µg/mL
Stability of Cannabinoids in AB Red ([2]; 8° C., 5 days): 4.75 µg/mL
Stability of Cannabinoids in AB Red ([2]; 8° C., 8 days): 4.76 µg/mL
Stability of Cannabinoids in AB Red ([2]; 8° C., 9 days): 4.72 µg/mL
Stability of Cannabinoids in AB Red ([2]; 8° C., 10 days): 4.68 µg/mL
Stability of Cannabinoids in AB Red ([2]; 8° C., 11 days): 4.77 µg/mL
Stability of Cannabinoids in AB Red ([2]; 8° C., 12 days): 4.64 µg/mL
Stability of Cannabinoids in AB Red ([2]; 8° C., 15 days): 4.68 µg/mL
Stability of Cannabinoids in AB Red ([2]; 8° C., 16 days): 4.65 µg/mL
Stability of Cannabinoids in AB Red ([2]; 8° C., 17 days): 4.77 µg/mL
Stability of Cannabinoids in AB Red ([2]; 8° C., 18 days): 4.67 µg/mL
Stability of Cannabinoids in AB Red ([2]; 8° C., 19 days): 4.71 µg/mL
Stability of Cannabinoids in AB Red ([2]; 8° C., 22 days): 4.70 µg/mL
Stability of Cannabinoids in AB Red ([2]; 8° C., 23 days): 4.66 µg/mL
Stability of Cannabinoids in AB Red ([2]; 8° C., 24 days): 4.65 µg/mL
Stability of Cannabinoids in AB Red ([2]; 8° C., 25 days): 4.73 µg/mL
Stability of Cannabinoids in AB Red ([2]; 8° C., 26 days): 4.68 µg/mL
Stability of Cannabinoids in AB Red ([2]; 8° C., 29 days): 4.80 µg/mL
Stability of Cannabinoids in AB Red ([2]; 8° C., 30 days): 4.72 µg/mL
Stability of Cannabinoids in AB Red ([2]; 8° C., 60 days): 4.70 µg/mL
Stability of Cannabinoids in AB Red ([2]; 8° C., 90 days): 4.73 µg/mL
Stability of Cannabinoids in AB Red ([2]; 8° C., 120 days): 4.68 µg/mL
Stability of Cannabinoids in AB Red ([2]; 8° C., 150 days): 4.67 µg/mL
Stability of Cannabinoids in AB Red ([2]; 8° C., 180 days): 4.65 µg/mL
Stability of Cannabinoids in AB Red ([2]; 8° C., 210 days): 4.60 µg/mL
Stability of Cannabinoids in AB Red ([2]; 8° C., 240 days): 4.68 µg/mL
Stability of Cannabinoids in AB Red ([2]; 8° C., 270 days): 4.66 µg/mL
Stability of Cannabinoids in AB Red ([2]; 8° C., 300 days): 4.70 µg/mL
Stability of Cannabinoids in AB Red ([2]; 8° C., 330 days): 4.60 µg/mL
Stability of Cannabinoids in AB Red ([2]; 8° C., 390 days): 4.55 µg/mL
Stability of Cannabinoids in AB Red ([2]; 8° C., 420 days): 4.58 µg/mL
Stability of Cannabinoids in AB Red ([2]; 8° C., 450 days): 4.54 µg/mL
Stability of Cannabinoids in AB Red ([2]; 8° C., 480 days): 4.51 µg/mL
Stability of Cannabinoids in AB Red ([2]; 8° C., 510 days): 4.40 µg/mL
Stability of Cannabinoids in AB Red ([2]; 8° C., 540 days): 4.42 µg/mL
Stability of Cannabinoids in AB Red ([2]; 8° C., 570 days): 4.37 µg/mL
Stability of Cannabinoids in AB Red ([2]; 21-25° C., 0 days): 4.75 µg/mL
Stability of Cannabinoids in AB Red ([2]; 21-25° C., 1 days): 4.57 µg/mL
Stability of Cannabinoids in AB Red ([2]; 21-25° C., 2 days): 4.61 µg/mL
Stability of Cannabinoids in AB Red ([2]; 21-25° C., 3 days): 4.71 µg/mL
Stability of Cannabinoids in AB Red ([2]; 21-25° C., 5 days): 4.66 µg/mL
Stability of Cannabinoids in AB Red ([2]; 21-25° C., 8 days): 4.66 µg/mL
Stability of Cannabinoids in AB Red ([2]; 21-25° C., 9 days): 4.74 µg/mL
Stability of Cannabinoids in AB Red ([2]; 21-25° C., 10 days): 4.59 µg/mL
Stability of Cannabinoids in AB Red ([2]; 21-25° C., 11 days): 4.72 µg/mL
Stability of Cannabinoids in AB Red ([2]; 21-25° C., 12 days): 4.62 µg/mL
Stability of Cannabinoids in AB Red ([2]; 21-25° C., 15 days): 4.80 µg/mL
Stability of Cannabinoids in AB Red ([2]; 21-25° C., 16 days): 4.75 µg/mL
Stability of Cannabinoids in AB Red ([2]; 21-25° C., 17 days): 4.63 µg/mL
Stability of Cannabinoids in AB Red ([2]; 21-25° C., 18 days): 4.70 µg/mL
Stability of Cannabinoids in AB Red ([2]; 21-25° C., 19 days): 4.66 µg/mL
Stability of Cannabinoids in AB Red ([2]; 21-25° C., 22 days): 4.71 µg/mL
Stability of Cannabinoids in AB Red ([2]; 21-25° C., 23 days): 4.67 µg/mL
Stability of Cannabinoids in AB Red ([2]; 21-25° C., 24 days): 4.78 µg/mL
Stability of Cannabinoids in AB Red ([2]; 21-25° C., 25 days): 4.56 µg/mL
Stability of Cannabinoids in AB Red ([2]; 21-25° C., 26 days): 4.77 µg/mL
Stability of Cannabinoids in AB Red ([2]; 21-25° C., 29 days): 4.78 µg/mL
Stability of Cannabinoids in AB Red ([2]; 21-25° C., 30 days): 4.73 µg/mL
Stability of Cannabinoids in AB Red ([2]; 21-25° C., 60 days): 4.61 µg/mL
Stability of Cannabinoids in AB Red ([2]; 21-25° C., 90 days): 4.55 µg/mL
Stability of Cannabinoids in AB Red ([2]; 21-25° C., 120 days): 4.61 µg/mL
Stability of Cannabinoids in AB Red ([2]; 21-25° C., 150 days): 4.65 µg/mL
Stability of Cannabinoids in AB Red ([2]; 21-25° C., 180 days): 4.53 µg/mL
Stability of Cannabinoids in AB Red ([2]; 21-25° C., 210 days): 4.63 µg/mL
Stability of Cannabinoids in AB Red ([2]; 21-25° C., 240 days): 4.56 µg/mL
Stability of Cannabinoids in AB Red ([2]; 21-25° C., 270 days): 4.68 µg/mL
Stability of Cannabinoids in AB Red ([2]; 21-25° C., 300 days): 4.47 µg/mL
Stability of Cannabinoids in AB Red ([2]; 21-25° C., 330 days): 4.57 µg/mL
Stability of Cannabinoids in AB Red ([2]; 21-25° C., 390 days): 4.57 µg/mL
Stability of Cannabinoids in AB Red ([2]; 21-25° C., 420 days): 4.51 µg/mL
Stability of Cannabinoids in AB Red ([2]; 21-25° C., 450 days): 4.63 µg/mL
Stability of Cannabinoids in AB Red ([2]; 21-25° C., 480 days): 4.44 µg/mL
Stability of Cannabinoids in AB Red ([2]; 21-25° C., 510 days): 4.37 µg/mL
Stability of Cannabinoids in AB Red ([2]; 21-25° C., 540 days): 4.49 µg/mL
Stability of Cannabinoids in AB Red ([2]; 21-25° C., 570 days): 4.36 µg/mL
